Holding throughout (format): cell-based
In test [1] the test system is epidermal cells. The experiment in a line: Inhibition of proliferation of epidermal cells.
Test [2] relates to New born mouse skin. The test is described as follows: Hair shaft growth in new born mouse skin micro-organ cultures. To be noted: skin from 30 hr-old mouse, 3 days in culture, 1 ng/ml EGF. How it is done:
New born mouse skin was obtained after surgery, cleaned of underlying fat tissue and cut into 0.4×5 cm flaps, which were then transversely sectioned, using a tissue chopper or other suitable cutting devise into 300 μm sections. The micro-organs were placed in microplates in DMEM in the absence of serum under 5% CO2 at 37° C. under constant shaking for periods of 1 to 14 days. Certain of the micro-organ explants were contacted with a growth factor, e.g., FGF, which was added to the culture media. The medium was changed every 2 days.
New born “hairless” skin can be induced to produce hair shafts when grown in MC cultures.

Test [3] deals with guinea-pig skin cultures. The test is described as follows: BrdU labeling assay of cell proliferation (DNA synthesis) in skin micro-organ cultures. To be noted: FIG. 12. Here is the method: Fresh skin was obtained after surgery, cleaned from underlying fat tissue and cut into 0.4×5 cm flaps, which are then transversely sectioned, using a tissue chopper or other suitable cutting means into 300 μm sections under sterile conditions so that the final tissue segments had dimensions of 4 mm in width and 0.3 mm in thickness (see FIG. 1). These micrograns were placed in a 24-well microplate in 400 μl of DMEM in the absence of serum under 5% CO2 at 37° C., under constant shaking at 12 rpm for periods of one to eight days. Twenty micro-explants were grown per well.
Micro-organ cultures were prepared according to Example I and proliferation of the cells was measured by analyzing the amount of DNA synthesis as follows. […]
The cultures were prepared and maintained in defined medium in similar growth conditions as described in Example I. Control samples were analyzed by immunocytochemistry to determine that the micro-organ culture was maintained in a manner that was similar to that occurring in vivo.
Duplicated samples of skin micro-cultures were treated with TGF-β at 2.5 ng/ml. A quantitative analysis of the number of BrdU labeled cells/explant was performed according to Example II.

“Also recorded” adds a separate entry of the source.

On to Activin, for which the “effect on proliferation of epidermal cells” value in test [1] was “inhibit proliferation of epidermal cells”. As to “EGF: epidermal growth factor added to culture medium (NSDSECPLSHDGYCLHDGVCMYIEALDKYACNCVVGYIGERCQYRDLKWWELR; UniProt P01133 971-1023, looked up)”, in test [2], the “hair shaft development in explants” value is recorded as “development of hair shafts in the explants”.

In the case of TGF-β, the “effect on cell proliferation / mitogenesis in skin micro-organ cultures” value in test [3] (2.5 ng/ml, guinea-pig skin cultures) is “inhibitor of cell proliferation; also recorded: inhibition of mitogenesis”. In test [3] (TGF-β at 2.5 ng/ml, skin micro-cultures in defined medium), the “inhibition of DNA synthesis (number of BrdU labeled cells/explant) compared with controls” value is on record as “Greater than 90%”.

The record behind these values is patent publication US20030152562A1, “Vitro micro-organs, and uses related thereto” (Yissum Research Development Company of the Hebrew …, priority 2001, published 2003).
